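Five compound concentrations were applied to cells in 96-well plates for 48 hours; endpoints were derived by simple linear interpolation of the resulting dose-response curve. The concentration for 50% growth inhibition is given as GI50. The concentration for full growth arrest is given as TGI.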
Key:
Test in all cases: NCI tumour cell line growth inhibition, 48 h
RXF 393 renal = system: RXF 393 renal
OVCAR-5 ovarian = system: OVCAR-5 ovarian
MDA-MB-231 breast = system: MDA-MB-231 breast
CAKI-1 renal = system: CAKI-1 renal
HS 578T breast = system: HS 578T breast
SW-620 colon = system: SW-620 colon
SNB-75 CNS = system: SNB-75 CNS
SN12C renal = system: SN12C renal
SK-MEL-2 melanoma = system: SK-MEL-2 melanoma
SK-OV-3 ovarian = system: SK-OV-3 ovarian
A549 NSCLC = system: A549 NSCLC
HOP-92 NSCLC = system: HOP-92 NSCLC
MALME-3M melanoma = system: MALME-3M melanoma
COLO 205 colon = system: COLO 205 colon
HCC-2998 colon = system: HCC-2998 colon
SK-MEL-28 melanoma = system: SK-MEL-28 melanoma
HL-60(TB) leukemia = system: HL-60(TB) leukemia
MCF7 breast = system: MCF7 breast
MDA-MB-468 breast = system: MDA-MB-468 breast
SNB-19 CNS = system: SNB-19 CNS
SF-268 CNS = system: SF-268 CNS
OVCAR-8 ovarian = system: OVCAR-8 ovarian
HOP-62 NSCLC = system: HOP-62 NSCLC
DU-145 prostate = system: DU-145 prostate
UACC-62 melanoma = system: UACC-62 melanoma
SF-295 CNS = system: SF-295 CNS
MDA-MB-435 = system: MDA-MB-435
PC-3 prostate = system: PC-3 prostate
HT29 colon = system: HT29 colon

With `CN(C)c1nc(NCCNS(=O)(=O)c2ccc(C(=O)/C=C/c3ccccc3)cc2)nc(N2CCOCC2)n1` the GI50 (RXF 393 renal) was 7.87 µM, the TGI (RXF 393 renal) was 22.8 µM and the GI50 (OVCAR-5 ovarian) was 12.1 µM. The TGI (OVCAR-5 ovarian) was 26 µM, the GI50 (MDA-MB-231 breast) was 13.9 µM and the TGI (MDA-MB-231 breast) was 27.6 µM. For the same molecule, the GI50 (CAKI-1 renal) was 12.2 µM, the TGI (CAKI-1 renal) was 24.6 µM and the GI50 (HS 578T breast) was 17.1 µM. The TGI (HS 578T breast) was 64.4 µM, the GI50 (SW-620 colon) was 3.41 µM and the TGI (SW-620 colon) was 12.7 µM. The GI50 (SNB-75 CNS) was 5.49 µM, the TGI (SNB-75 CNS) was 19.8 µM and the GI50 (SN12C renal) was 14.6 µM. It also gave a TGI (SN12C renal) of 28.6 µM, a GI50 (SK-MEL-2 melanoma) of 15.3 µM and a TGI (SK-MEL-2 melanoma) of 29.5 µM. The GI50 (SK-OV-3 ovarian) was 15.6 µM, the TGI (SK-OV-3 ovarian) was 29.8 µM and the GI50 (A549 NSCLC) was 13.6 µM. The TGI (A549 NSCLC) was 28.3 µM, the GI50 (HOP-92 NSCLC) was 12.2 µM and the TGI (HOP-92 NSCLC) was 26.6 µM. The GI50 (MALME-3M melanoma) was 15.2 µM, the TGI (MALME-3M melanoma) was 29.3 µM and the GI50 (COLO 205 colon) was 20.2 µM. It also gave a TGI (COLO 205 colon) of 40.3 µM, a GI50 (HCC-2998 colon) of 16.7 µM and a TGI (HCC-2998 colon) of 31.1 µM. For the same molecule, the GI50 (SK-MEL-28 melanoma) was 17.2 µM, the TGI (SK-MEL-28 melanoma) was 33.1 µM and the GI50 (HL-60(TB) leukemia) was 6.18 µM. For the same molecule, the TGI (HL-60(TB) leukemia) was 42.1 µM, the GI50 (MCF7 breast) was 3.49 µM and the TGI (MCF7 breast) was 13.8 µM. The GI50 (MDA-MB-468 breast) was 4.17 µM, the TGI (MDA-MB-468 breast) was 17.7 µM and the GI50 (SNB-19 CNS) was 14.8 µM. For the same molecule, the TGI (SNB-19 CNS) was 29.1 µM, the GI50 (SF-268 CNS) was 13.7 µM and the TGI (SF-268 CNS) was 31 µM. The GI50 (OVCAR-8 ovarian) was 16.4 µM, the TGI (OVCAR-8 ovarian) was 31.8 µM and the GI50 (HOP-62 NSCLC) was 16.4 µM. For the same molecule, the TGI (HOP-62 NSCLC) was 32.1 µM, the GI50 (DU-145 prostate) was 15.1 µM and the TGI (DU-145 prostate) was 28.4 µM. The GI50 (UACC-62 melanoma) was 12 µM, the TGI (UACC-62 melanoma) was 25 µM and the GI50 (SF-295 CNS) was 15.6 µM. The TGI (SF-295 CNS) was 30.4 µM, the GI50 (MDA-MB-435) was 14.7 µM and the TGI (MDA-MB-435) was 28.3 µM. It also gave a GI50 (PC-3 prostate) of 8.63 µM, a TGI (PC-3 prostate) of 23.6 µM and a GI50 (HT29 colon) of 3.8 µM. It also gave a TGI (HT29 colon) of 13.1 µM.
